Assay results from patent publication US12351580B2, “NLRP3 modulators” (Innate Tumor Immunity, Inc., priority 2017, dated 2025).

Target: T1, hNLRP3 (Homo sapiens, UniProt Q96P20)
T1 construct: THP-1 cells were purchased from the American Type Culture Collection; host or cells: THP-1 cells, PMA-differentiated
Assay: Measurement of IL-1β production in PMA-differentiated THP-1 cells (hNLRP3 agonist; ELISA, alternative and hTRF procedures)
Format: cell-based
Outline: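 PMA-differentiated THP-1 cells (PMA […] 24 h, 20 μg/ml overnight, or 50 ng/ml overnight, by procedure) replated in RPMI with 2% FBS and exposed to compound (e.g. 100–0.1 μM, 1% DMSO; hTRF format top 10 μM) for 4 h, 2 h, or 2 h respectively. Supernatant IL-1β measured by ELISA, or by hTRF with antibodies diluted 1:40.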

T1 sequence (Q96P20 whole entry): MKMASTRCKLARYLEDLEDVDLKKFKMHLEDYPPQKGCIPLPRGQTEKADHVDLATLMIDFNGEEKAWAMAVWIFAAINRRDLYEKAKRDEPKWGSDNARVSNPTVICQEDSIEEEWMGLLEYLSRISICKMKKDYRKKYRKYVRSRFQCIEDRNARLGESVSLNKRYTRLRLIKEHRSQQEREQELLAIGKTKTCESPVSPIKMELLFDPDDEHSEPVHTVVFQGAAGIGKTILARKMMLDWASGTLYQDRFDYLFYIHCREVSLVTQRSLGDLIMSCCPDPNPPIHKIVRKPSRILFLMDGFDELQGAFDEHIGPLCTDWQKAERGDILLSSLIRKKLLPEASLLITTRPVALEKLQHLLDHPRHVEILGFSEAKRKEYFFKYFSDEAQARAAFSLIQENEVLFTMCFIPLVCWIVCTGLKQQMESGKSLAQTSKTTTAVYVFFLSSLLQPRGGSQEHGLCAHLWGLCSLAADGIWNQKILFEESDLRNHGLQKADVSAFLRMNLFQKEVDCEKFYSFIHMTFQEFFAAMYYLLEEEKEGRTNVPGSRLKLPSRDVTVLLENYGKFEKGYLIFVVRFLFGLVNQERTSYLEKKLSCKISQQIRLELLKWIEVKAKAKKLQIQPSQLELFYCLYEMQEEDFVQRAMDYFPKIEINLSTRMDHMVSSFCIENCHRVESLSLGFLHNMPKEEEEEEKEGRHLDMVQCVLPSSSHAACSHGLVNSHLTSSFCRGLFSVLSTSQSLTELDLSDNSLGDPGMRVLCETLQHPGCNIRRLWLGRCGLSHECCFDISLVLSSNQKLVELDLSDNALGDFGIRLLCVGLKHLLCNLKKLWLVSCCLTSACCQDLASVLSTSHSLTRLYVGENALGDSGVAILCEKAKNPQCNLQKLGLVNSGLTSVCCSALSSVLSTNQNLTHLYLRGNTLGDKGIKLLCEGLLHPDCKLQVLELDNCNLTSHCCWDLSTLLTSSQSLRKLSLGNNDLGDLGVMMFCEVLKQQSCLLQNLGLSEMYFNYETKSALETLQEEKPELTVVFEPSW

EC50 [nM] | Structure (SMILES)
1260 | CC(c1nc2c(N)nc3cc(-n4cccn4)ccc3c2[nH]1)N1CCCC1=O (stereo not drawn) [Compound 117]
240 | Nc1nc2cc(-c3cccs3)ccc2c2[nH]c(CN3CCCC3=O)nc12 [Compound 309, 1-[(4-amino-7-thiophen-2-yl-1H-imidazo[4,5-c]quinolin-2-yl)methyl]pyrrolidin-2-one]
1180 | N#Cc1ccccc1-c1ccc2c(c1)nc(N)c1nc(CN3CCCC3=O)[nH]c12 [Compound 315, 2-[4-amino-2-[(2-oxopyrrolidin-l-yl)methyl]-1H-imidazo[4,5-c]quinolin-7-yl]benzonitrile]
6200 | COc1ncccc1-c1ccc2c(c1)nc(N)c1nc(CN3CCCC3=O)[nH]c12 [Compound 319, 1-[[4-amino-7-(2-methoxypyridin-3-yl)-1H-imidazo[4,5-c]quinolin-2-yl]methyl]pyrrolidin-2-one]
1500 | Nc1nc2cc(-c3cccnc3Cl)ccc2c2[nH]c(CN3CCCC3=O)nc12 [Compound 320, 1-[[4-amino-7-(2-chloropyridin-3-yl)-1H-imidazo[4,5-c]quinolin-2-yl]methyl]pyrrolidin-2-one]
4500 | Nc1nc2cc(-c3cnccc3Cl)ccc2c2[nH]c(CN3CCCC3=O)nc12 [Compound 321, 1-[[4-amino-7-(4-chloropyridin-3-yl)-1H-imidazo[4,5-c]quinolin-2-yl]methyl]pyrrolidin-2-one]
6700 | Nc1nc2cc(-c3ccc(C(F)(F)F)nc3)ccc2c2[nH]c(CN3CCCC3=O)nc12 [Compound 324, 1-[[4-amino-746-(trifluoromethyppyridin-3-yl]-1H-imidazo[4,5-c]quinolin-2-yl]methyl]pyrrolidin-2-one]
2700 | N#Cc1cncc(-c2ccc3c(c2)nc(N)c2nc(CN4CCCC4=O)[nH]c23)c1 [Compound 326, 5-[4-amino-2-[(2-oxopyrrolidin-l-yl)methyl]-1H-imidazo[4,5-c]quinolin-7-yl]pyridine-3-carbonitrile]
13000 | N#Cc1ccc(-c2ccc3c(c2)nc(N)c2nc(CN4CCCC4=O)[nH]c23)cn1 [Compound 327, 5-[4-amino-2-[(2-oxopyrrolidin-l-yl)methyl]-1H-imidazo[4,5-c]quinolin-7-yl]pyridine-2-carbonitrile]
4100 | Nc1nc2cc(-c3cncc(Cl)c3)ccc2c2[nH]c(CN3CCCC3=O)nc12 [Compound 328, 1-[[4-amino-7-(5-chloropyridin-3-yl)-1H-imidazo[4,5-c]quinolin-2-yl]methyl]pyrrolidin-2-one]
1600 | Nc1nc2cc(-c3ccc(F)nc3)ccc2c2[nH]c(CN3CCCC3=O)nc12 [Compound 330, 1-[[4-amino-7-(6-fluoropyridin-3-yl)-1H-imidazo[4,5-c]quinolin-2-yl]methyl]pyrrolidin-2-one]
3200 | Nc1nc2cc(-c3cncc(F)c3)ccc2c2[nH]c(CN3CCCC3=O)nc12 [Compound 331, 1-[[4-amino-7-(5-fluoropyridin-3-yl)-1H-imidazo[4,5-c]quinolin-2-yl]methyl]pyrrolidin-2-one]
3300 | Nc1nc2cc(C3CCCCCC3)ccc2c2[nH]c(CN3CCCC3=O)nc12 [Compound 332, 1-[(4-amino-7-cycloheptyl-1H-imidazo[4,5-c]quinolin-2-yl)methyl]pyrrolidin-2-one]
6500 | COC(=O)CCCn1c(CN2CCCC2=O)nc2c(N)nc3ccccc3c21 [Compound 335]
80000 | CN(C)C(=O)CCCn1c(CN2CCCC2=O)nc2c(N)nc3cc(Cl)ccc3c21 [Compound 337]
50000 | CN(C)C(=O)CCCn1c(CN2CCCC2=O)nc2c(N)nc3cc(-c4cccnc4)ccc3c21 [Compound 340]
2100 | COC(=O)CCCn1c(CN2CCCC2=O)nc2c(N)nc3cc(Br)ccc3c21 [Compound 341]
3300 | COC(=O)CCCn1c(CN2CCCC2=O)nc2c(N)nc3cc(-c4cccnc4)ccc3c21 [Compound 342]
17300 | Nc1nc2ccccc2c2[nH]c(CN3CCCCC3=O)nc12 [Compound 346]
41000 | COC(=O)CCCn1c(CN2CCCCC2=O)nc2c(N)nc3ccccc3c21 [Compound 347]
3660 | COc1ccc(Cn2c(CN3CCN(C)C3=O)nc3c(N)nc4cc(-c5cc[nH]n5)ccc4c32)cc1 [Compound 403]
620 | Nc1nc2cc(-n3cccn3)ccc2c2[nH]c(CN3CCCCC3=O)nc12 [Compound 423]
7450 | CCN(Cc1nc2c(N)nc3cc(Br)ccc3c2n1CC(C)C)C(C)=O [Compound 430]
8670 | CCN(Cc1nc2c(N)nc3cc(Br)ccc3c2n1CCCOC)C(C)=O [Compound 431]

More lines, now with the values behind:

Structure (SMILES) | EC50 [nM]
CCC(=O)NCc1nc2c(N)nc3cc(-c4cc[nH]n4)ccc3c2[nH]1 [Compound 111] | 720
CCN(Cc1nc2c(N)nc3cc(-c4cc[nH]n4)ccc3c2[nH]1)C(=O)c1nccs1 [Compound 114] | 1040
CN(Cc1nc2c(N)nc3cc(-c4cc[nH]n4)ccc3c2[nH]1)S(C)(=O)=O [Compound 115] | 900
CCN(Cc1nc2c(N)nc3cc(-c4cc[nH]n4)ccc3c2[nH]1)C(=O)C1CC1 [Compound 118] | 1360
Nc1nc2cc(Br)ccc2c2[nH]c(CN3CC(c4ccccc4)CC3=O)nc12 (stereo not drawn) [Compound 316, 1-[(4-amino-7-bromo-1H-imidazo[4,5-c]quinolin-2-yl)methyl]-4-phenylpyrrolidin-2-one] | 1100
Nc1nc2cc(-c3cccnc3)ccc2c2[nH]c(CN3CC(c4ccccc4)CC3=O)nc12 (stereo not drawn) [Compound 333, 1-[(4-amino-7-pyridin-3-yl-1H-imidazo[4,5-c]quinolin-2-yl)methyl]-4-phenylpyrrolidin-2-one] | 1900
CN(C)Cc1nc2c(N)nc3cc(-c4cc[nH]n4)ccc3c2[nH]1 [Compound 348] | 890
CCN(C)Cc1nc2c(N)nc3cc(-c4cc[nH]n4)ccc3c2[nH]1 [Compound 349] | 600
Nc1nc2cc(-n3cccn3)ccc2c2[nH]c(CN3C[C@@H](c4ccccc4)CC3=O)nc12 [Compound 357] | 640
Nc1nc2cc(-n3cccn3)ccc2c2[nH]c(CN3C[C@H](c4ccccc4)CC3=O)nc12 [Compound 358] | 630
Nc1nc2cc(-c3cc[nH]n3)ccc2c2[nH]c(CN3C(=O)OCC3c3ccccc3)nc12 (stereo not drawn) [Compound 363] | 5800
Nc1nc2cc(-c3cc[nH]n3)ccc2c2[nH]c(CN3CCOC3=O)nc12 [Compound 365] | 5000
CN1CCN(Cc2nc3c(N)nc4cc(-c5cc[nH]n5)ccc4c3[nH]2)C1=O [Compound 368] | 3900
CN(Cc1nc2c(N)nc3cc(-c4cc[nH]n4)ccc3c2[nH]1)C(=O)CO [Compound 370] | 4800
CN(Cc1nc2c(N)nc3cc(-c4cc[nH]n4)ccc3c2[nH]1)C(=O)CN [Compound 372] | 8300
CN(C)C(=O)N(C)Cc1nc2c(N)nc3cc(-c4cc[nH]n4)ccc3c2[nH]1 [Compound 375] | 2400
CN(Cc1nc2c(N)nc3cc(-c4cc[nH]n4)ccc3c2[nH]1)C(=O)c1ccccc1 [Compound 376] | 3600
CN(Cc1nc2c(N)nc3cc(-c4cc[nH]n4)ccc3c2[nH]1)C(=O)c1nccs1 [Compound 377] | 4300
CCN(C=O)Cc1nc2c(N)nc3cc(-c4cc[nH]n4)ccc3c2[nH]1 [Compound 379] | 2000
CCN(Cc1nc2c(N)nc3cc(-c4cc[nH]n4)ccc3c2[nH]1)C(=O)CN(C)C [Compound 383] | 3600

Structure (SMILES) | EC50 [nM]
CCN(Cc1nc2c(N)nc3cc(-c4ccn(C)n4)ccc3c2[nH]1)C(=O)OC(C)(C)C [Compound 393] | 7110
CCN(Cc1nc2c(N)nc3cc(-c4ccsc4)ccc3c2[nH]1)C(=O)OC(C)(C)C [Compound 397] | 1050
CCNCc1nc2c(N)nc3cc(-n4cccn4)ccc3c2[nH]1 [Compound 398] | 1220
CCNCc1nc2c(N)nc3cc(-c4cccs4)ccc3c2[nH]1 [Compound 399] | 1060
CCNCc1nc2c(N)nc3cc(-c4ccsc4)ccc3c2[nH]1 [Compound 400] | 1790
CNCc1nc2c(N)nc3cc(-c4cc[nH]n4)ccc3c2[nH]1 [Compound 401] | 1230
CNCc1nc2c(N)nc3cc(-n4cccn4)ccc3c2[nH]1 [Compound 402] | 1310
COc1ccc(Cn2c(CN3C(=O)OCC3COCc3ccccc3)nc3c(N)nc4cc(-c5cc[nH]n5)ccc4c32)cc1 (stereo not drawn) [Compound 404] | 2500
COC(=O)N(C)Cc1nc2c(N)nc3cc(-c4cc[nH]n4)ccc3c2[nH]1 [Compound 405] | 2190
CCN(Cc1nc2c(N)nc3cc(-c4cc[nH]n4)ccc3c2[nH]1)C(=O)OC [Compound 406] | 1370
Nc1nc2cc(-c3cc[nH]n3)ccc2c2[nH]c(CN3C[C@@H](c4ccccc4)CC3=O)nc12 [Compound 407] | 6550
Nc1nc2cc(-c3cc[nH]n3)ccc2c2[nH]c(CN3C[C@H](c4ccccc4)CC3=O)nc12 [Compound 408] | 5230
COc1ccc(Cn2c(CN3C(=O)OCC3c3ccccc3)nc3c(N)nc4cc(-c5cc[nH]n5)ccc4c32)cc1 (stereo not drawn) [Compound 409] | 2360
COc1ccc(Cn2c(Cn3cnccc3=O)nc3c(N)nc4cc(-c5cc[nH]n5)ccc4c32)cc1 [Compound 414] | 3830
CCN(Cc1nc2c(N)nc3cc(-c4cc[nH]n4)ccc3c2[nH]1)C(=O)C1COC1 [Compound 417] | 7400
CCN(Cc1nc2c(N)nc3cc(-c4ccsc4)ccc3c2[nH]1)C(C)=O [Compound 419, N-((4-Amino-7-(thiophen-3-yl)-1H-imidazo[4,5-c]quinolin-2-yl)methyl)-N-ethylacetamide] | 910
CCN(Cc1nc2c(N)nc3cc(-c4cc[nH]n4)ccc3c2n1C)C(=O)OC(C)(C)C [Compound 420] | 190
CCN(Cc1nc2c(N)nc3cc(-c4ccc(C)cc4)ccc3c2[nH]1)C(C)=O [Compound 422] | 280
CCN(Cc1nc2c(N)nc3cc(-c4cncc(F)c4)ccc3c2[nH]1)C(C)=O [Compound 427] | 5000
